Data: US4986988A, “Isolation and structural elucidation of the cytostatic linear depsipeptides dolastatin 13 and dehydrodolastatin 13” (priority 1989, dated 1991)
Converted amounts (≈) assume the structure as drawn. Read-outs that look alike come from different tables or passages of the source.

Test system: P388 lymphocytic leukemia (PS System) cell line
Assay: P388 lymphocytic leukemia in vitro cell line growth inhibition (PS bioassay)
Type: cell-based, murine
Procedure: Because of the dolastatin's potency, the sea hare seems to require only vanishingly small quantities (about 1 mg each from 100 kg), making isolation and structural elucidation of these peptides exceptionally challenging. Later another substance was isolated and determined to be a unique linear pentapeptide and was denominated "dolastatin 10".

C/C=C1/NC(=O)C(NC(=O)C(NC(=O)C(CO)OC)C(C)C)C(C)OC(=O)C(C(C)C)NC(=O)C(Cc2ccccc2)N(C)C(=O)C(Cc2ccccc2)N2C(=O)C(CCC2O)NC1=O (centres unmarked) [dolastatin 13]
ED50: 1.3 ng/mL (≈ 1.43 nM)
ED50 (listed as Dolastatin 13): 13 ng/mL (≈ 14.3 nM)
